Laboratory results: ChEMBL document CHEMBL3822420, “New peptide deformylase inhibitors design, synthesis and pharmacokinetic assessment” (Bioorg Med Chem Lett, 2016)
In brackets after ≈: the same amount, converted by molar mass.

Assays:
Assay type in all cases: functional
[1] = tested on: Staphylococcus epidermidis; assay: Antibacterial activity against methicillin-sensitive Staphylococcus epidermidis 14-1
Staphylococcus aureus [2] = assay: Antibacterial activity against methicillin-resistant Staphylococcus aureus 14-5
Staphylococcus aureus [3] = assay: Antibacterial activity against methicillin-sensitive Staphylococcus aureus 14-3
Staphylococcus aureus [4] = assay: Antibacterial activity against methicillin-resistant Staphylococcus aureus 14-4
Staphylococcus aureus [5] = assay: Antibacterial activity against methicillin-sensitive Staphylococcus aureus 14-4
Staphylococcus aureus [6] = assay: Antibacterial activity against methicillin-sensitive Staphylococcus aureus 14-2
Escherichia coli [7] = assay: Antibacterial activity against Escherichia coli 14-1 expressing extended-spectrum beta-lactamase
Staphylococcus aureus [8] = assay: Antibacterial activity against methicillin-sensitive Staphylococcus aureus 14-1
[9] = tested on: Staphylococcus epidermidis; assay: Antibacterial activity against methicillin-sensitive Staphylococcus epidermidis 14-2
Enterococcus faecalis [10] = assay: Antibacterial activity against Enterococcus faecalis 14-5
[11] = tested on: Staphylococcus epidermidis; assay: Antibacterial activity against methicillin-sensitive Staphylococcus epidermidis 14-3
Staphylococcus aureus [12] = assay: Antibacterial activity against methicillin-resistant Staphylococcus aureus 14-1
Escherichia coli [13] = assay: Antibacterial activity against Escherichia coli 14-1
Enterococcus faecalis [14] = assay: Antibacterial activity against Enterococcus faecalis 14-1
Escherichia coli [15] = assay: Antibacterial activity against Escherichia coli 14-2
[16] = tested on: Staphylococcus epidermidis; assay: Antibacterial activity against methicillin-resistant Staphylococcus epidermidis 14-3
Enterococcus faecalis [17] = assay: Antibacterial activity against Enterococcus faecalis 14-2
[18] = tested on: Staphylococcus epidermidis; assay: Antibacterial activity against methicillin-resistant Staphylococcus epidermidis 14-4
Staphylococcus aureus [19] = assay: Antibacterial activity against methicillin-resistant Staphylococcus aureus 14-2
Enterococcus faecalis [20] = assay: Antibacterial activity against Enterococcus faecalis 14-3
[21] = tested on: Staphylococcus epidermidis; assay: Antibacterial activity against methicillin-resistant Staphylococcus epidermidis 14-2
[22] = tested on: Staphylococcus epidermidis; assay: Antibacterial activity against methicillin-resistant Staphylococcus epidermidis 14-1
Escherichia coli [23] = assay: Antibacterial activity against Escherichia coli 14-2 expressing extended-spectrum beta-lactamase

SMILES | MIC [1] [µg/mL] | MIC (Staphylococcus aureus [2]) [µg/mL] | MIC (Staphylococcus aureus [3]) [µg/mL] | MIC (Staphylococcus aureus [4]) [µg/mL] | MIC (Staphylococcus aureus [5]) [µg/mL] | MIC (Staphylococcus aureus [6]) [µg/mL] | MIC (Escherichia coli [7]) [µg/mL] | MIC (Staphylococcus aureus [8]) [µg/mL] | MIC [9] [µg/mL] | MIC (Enterococcus faecalis [10]) [µg/mL] | MIC [11] [µg/mL] | MIC (Staphylococcus aureus [12]) [µg/mL] | MIC (Escherichia coli [13]) [µg/mL] | MIC (Enterococcus faecalis [14]) [µg/mL] | MIC (Escherichia coli [15]) [µg/mL] | MIC (Enterococcus faecalis [17]) [µg/mL] | MIC [18] [µg/mL] | MIC (Staphylococcus aureus [19]) [µg/mL] | MIC (Enterococcus faecalis [20]) [µg/mL] | MIC (Escherichia coli [23]) [µg/mL] | also measured
CCCC[C@H](CN(O)C=O)C(=O)N1CCC[C@H]1C(=O)Nc1ccc(F)c[n+]1[O-] | 0.06 (≈ 0.151 µM) | 0.5 (≈ 1.26 µM) | 0.5 (≈ 1.26 µM) | 1 (≈ 2.52 µM) | 0.5 (≈ 1.26 µM) | 0.5 (≈ 1.26 µM) | 1 (≈ 2.52 µM) | 0.5 (≈ 1.26 µM) | 0.5 (≈ 1.26 µM) | 128 (≈ 323 µM) | 0.06 (≈ 0.151 µM) | 1 (≈ 2.52 µM) | 64 (≈ 161 µM) | 2 (≈ 5.05 µM) | 64 (≈ 161 µM) | 2 (≈ 5.05 µM) | 0.125 (≈ 0.315 µM) | 1 (≈ 2.52 µM) | 2 (≈ 5.05 µM) | 64 (≈ 161 µM) | MIC [16]: 0.06 µg/mL (≈ 0.151 µM); MIC [21]: 0.125 µg/mL (≈ 0.315 µM); MIC [22]: 0.125 µg/mL (≈ 0.315 µM)
CCCC[C@H](CN(O)C=O)C(=O)N1CC2(CC2)C[C@H]1c1nnc2ccccn12 | 0.25 (≈ 0.649 µM) | 1 (≈ 2.59 µM) | 1 (≈ 2.59 µM) | 1 (≈ 2.59 µM) | 1 (≈ 2.59 µM) | 1 (≈ 2.59 µM) | 2 (≈ 5.19 µM) | 1 (≈ 2.59 µM) | 0.5 (≈ 1.3 µM) | 8 (≈ 20.8 µM) | 0.5 (≈ 1.3 µM) | 1 (≈ 2.59 µM) | 128 (≈ 332 µM) | 4 (≈ 10.4 µM) | 128 (≈ 332 µM) | 8 (≈ 20.8 µM) | 1 (≈ 2.59 µM) | 1 (≈ 2.59 µM) | 8 (≈ 20.8 µM) | 128 (≈ 332 µM) | MIC [16]: 0.25 µg/mL (≈ 0.649 µM); MIC [21]: 0.5 µg/mL (≈ 1.3 µM); MIC [22]: 0.5 µg/mL (≈ 1.3 µM)
CCCC[C@H](CN(O)C=O)C(=O)N1CC2(CC2)C[C@H]1C(=O)Nc1cccc(Nc2ncccn2)c1 | 0.125 (≈ 0.26 µM) | 0.125 (≈ 0.26 µM) | 0.25 (≈ 0.52 µM) | 0.25 (≈ 0.52 µM) | 0.125 (≈ 0.26 µM) | 0.25 (≈ 0.52 µM) | 1 (≈ 2.08 µM) | 0.25 (≈ 0.52 µM) | 0.25 (≈ 0.52 µM) | 1 (≈ 2.08 µM) | 0.125 (≈ 0.26 µM) | 0.25 (≈ 0.52 µM) | 128 (≈ 266 µM) | 0.5 (≈ 1.04 µM) | 128 (≈ 266 µM) | 1 (≈ 2.08 µM) | 0.25 (≈ 0.52 µM) | 0.25 (≈ 0.52 µM) | 1 (≈ 2.08 µM) | 64 (≈ 133 µM) | MIC [16]: 0.06 µg/mL (≈ 0.125 µM); MIC [21]: 0.25 µg/mL (≈ 0.52 µM); MIC [22]: 0.125 µg/mL (≈ 0.26 µM)
CCCC[C@H](CN(O)C=O)C(=O)N1CC2(CC2)C[C@H]1c1nnc(-c2ccccn2)o1 | 1 (≈ 2.42 µM) | 2 (≈ 4.84 µM) | 2 (≈ 4.84 µM) | 4 (≈ 9.67 µM) | 2 (≈ 4.84 µM) | 2 (≈ 4.84 µM) | 0.5 (≈ 1.21 µM) | 4 (≈ 9.67 µM) | 1 (≈ 2.42 µM) | 8 (≈ 19.3 µM) | 0.5 (≈ 1.21 µM) | 4 (≈ 9.67 µM) | 128 (≈ 310 µM) | 4 (≈ 9.67 µM) | 64 (≈ 155 µM) | 8 (≈ 19.3 µM) | 4 (≈ 9.67 µM) | 4 (≈ 9.67 µM) | 8 (≈ 19.3 µM) | 64 (≈ 155 µM) | MIC [16]: 0.5 µg/mL (≈ 1.21 µM); MIC [21]: 0.5 µg/mL (≈ 1.21 µM); MIC [22]: 1 µg/mL (≈ 2.42 µM)
CCCC[C@H](CN(O)C=O)C(=O)N1CC2(CC2)C[C@H]1C(=O)Nc1cc[nH]n1 | 4 (≈ 10.6 µM) | 8 (≈ 21.2 µM) | 16 (≈ 42.4 µM) | 16 (≈ 42.4 µM) | 16 (≈ 42.4 µM) | 16 (≈ 42.4 µM) | 16 (≈ 42.4 µM) | 16 (≈ 42.4 µM) | 16 (≈ 42.4 µM) | > 128 | 4 (≈ 10.6 µM) | 16 (≈ 42.4 µM) | > 128 | 64 (≈ 170 µM) | > 128 | 64 (≈ 170 µM) | 8 (≈ 21.2 µM) | 32 (≈ 84.8 µM) | 64 (≈ 170 µM) | 128 (≈ 339 µM) | MIC [16]: 4 µg/mL (≈ 10.6 µM); MIC [21]: 8 µg/mL (≈ 21.2 µM); MIC [22]: 8 µg/mL (≈ 21.2 µM)
CCCC[C@H](CN(O)C=O)C(=O)N1CC2(CC2)C[C@H]1C(=O)Nc1nccc(-c2cccnc2)n1 | 0.125 (≈ 0.268 µM) | 0.25 (≈ 0.536 µM) | 0.5 (≈ 1.07 µM) | 2 (≈ 4.29 µM) | 0.25 (≈ 0.536 µM) | 0.5 (≈ 1.07 µM) | 2 (≈ 4.29 µM) | 0.25 (≈ 0.536 µM) | 0.5 (≈ 1.07 µM) | 0.5 (≈ 1.07 µM) | 0.25 (≈ 0.536 µM) | 2 (≈ 4.29 µM) | > 64 | 0.5 (≈ 1.07 µM) | > 64 | 0.5 (≈ 1.07 µM) | 0.5 (≈ 1.07 µM) | 0.5 (≈ 1.07 µM) | 1 (≈ 2.14 µM) | > 64 | MIC [16]: 0.125 µg/mL (≈ 0.268 µM); MIC [21]: 0.25 µg/mL (≈ 0.536 µM); MIC [22]: 0.25 µg/mL (≈ 0.536 µM)
CCCC[C@H](CN(O)C=O)C(=O)N1CC2(CC2)C[C@H]1C(=O)Nc1ncccc1F | 0.125 (≈ 0.308 µM) | 0.25 (≈ 0.615 µM) | 0.5 (≈ 1.23 µM) | 0.5 (≈ 1.23 µM) | 0.5 (≈ 1.23 µM) | 0.5 (≈ 1.23 µM) | 2 (≈ 4.92 µM) | 0.5 (≈ 1.23 µM) | 0.25 (≈ 0.615 µM) | 2 (≈ 4.92 µM) | 0.25 (≈ 0.615 µM) | 0.5 (≈ 1.23 µM) | > 64 | 2 (≈ 4.92 µM) | 64 (≈ 157 µM) | 2 (≈ 4.92 µM) | 0.5 (≈ 1.23 µM) | 0.5 (≈ 1.23 µM) | 2 (≈ 4.92 µM) | 64 (≈ 157 µM) | MIC [16]: 0.125 µg/mL (≈ 0.308 µM); MIC [21]: 0.25 µg/mL (≈ 0.615 µM); MIC [22]: 0.25 µg/mL (≈ 0.615 µM)
CO/N=C(\C(=O)N[C@@H]1C(=O)N2C(C(=O)[O-])=CCS[C@H]12)c1csc(N)n1.[Na+] [CEFTIZOXIME SODIUM] | 32 | 64 | 4 | 128 | 2 | 4 | 1 | 4 | 64 | > 128 | > 128 | 128 | 4 | > 128 | 4 | > 128 | 32 | 64 | > 128 | 32 | MIC [21]: 128 µg/mL; MIC [22]: 128 µg/mL
Cc1nc(NNC(=O)[C@H](CC2CCCC2)CN(O)C=O)c(F)c(N2CCN3CCOC[C@@H]3C2)n1 [LANOPEPDEN] | 0.125 (≈ 0.261 µM) | 0.25 (≈ 0.521 µM) | 1 (≈ 2.09 µM) | 2 (≈ 4.17 µM) | 1 (≈ 2.09 µM) | 1 (≈ 2.09 µM) | 1 (≈ 2.09 µM) | 1 (≈ 2.09 µM) | 0.25 (≈ 0.521 µM) | > 64 | 0.06 (≈ 0.125 µM) | 2 (≈ 4.17 µM) | 64 (≈ 133 µM) | 8 (≈ 16.7 µM) | 64 (≈ 133 µM) | 16 (≈ 33.4 µM) | 0.25 (≈ 0.521 µM) | 1 (≈ 2.09 µM) | 16 (≈ 33.4 µM) | > 64 | MIC [16]: 0.015 µg/mL (≈ 0.0313 µM); MIC [21]: 0.06 µg/mL (≈ 0.125 µM); MIC [22]: 0.125 µg/mL (≈ 0.261 µM)
C[C@H]1COc2c(N3CCN(C)CC3)c(F)cc3c(=O)c(C(=O)O)cn1c23.C[C@H]1COc2c(N3CCN(C)CC3)c(F)cc3c(=O)c(C(=O)O)cn1c23.O [LEVOFLOXACIN] | 0.5 | > 128 | 32 | > 128 | 16 | 0.5 | 32 | 16 | 0.5 | 2 | 0.5 | 128 |  | 2 |  | 4 | 16 | > 128 | 2 | 64 | MIC [16]: 16 µg/mL; MIC [21]: 16 µg/mL; MIC [22]: 16 µg/mL
CO[C@H]1/C=C/O[C@@]2(C)Oc3c(C)c(O)c4c(O)c(c(/C=N/N5CCN(C)CC5)c(O)c4c3C2=O)NC(=O)/C(C)=C\C=C\[C@H](C)[C@H](O)[C@@H](C)[C@@H](O)[C@@H](C)[C@H](OC(C)=O)[C@@H]1C [RIFAMPIN] | < 0.008 | > 128 | 0.008 (≈ 0.00972 µM) | > 128 | < 0.008 | 0.008 (≈ 0.00972 µM) | 2 (≈ 2.43 µM) | < 0.008 | < 0.008 | 4 (≈ 4.86 µM) | 0.008 (≈ 0.00972 µM) | > 128 | 2 (≈ 2.43 µM) | 1 (≈ 1.22 µM) | 2 (≈ 2.43 µM) | 2 (≈ 2.43 µM) | < 0.008 | > 128 | 2 (≈ 2.43 µM) | 2 (≈ 2.43 µM) | MIC [16]: 0.008 µg/mL (≈ 0.00972 µM)
